Measured values reported in patent publication US12552796B2, “EED inhibitor, and preparation method therefor and use thereof” (SHANGHAITECH UNIVERSITY, priority 2019, dated 2026).
Like-named read-outs stand apart in the source and are kept apart here.

How the values were obtained:
WSU-DLCL2 cells = experiment: Cell proliferation assay, WSU-DLCL2; type: cell-based; conditions: Homo sapiens
Experimental: Human B-cell non-Hodgkin's lymphoma cells WSU-DLCL2, Karpas422 and Pfeiffer were cultured in cell culture flasks in a sterile incubator with 95% relative humidity and 5% CO2 at 37° C. The medium was RPMI-1640 (Gibco, product No. 31800022) containing 15% fetal bovine serum (FBS, Gibco, product No. 10099141) and 0.1% penicillin/streptomycin solution (P/S). In order to assay the effects of compounds on cell proliferation, cells in exponential growth phase were seeded into a 12-well plate (Nunc, product No. 150628) with 1 mL of medium per well, wherein WSU-DLCL2 and Karpas422 were seeded at a density of 1×10^5 cells/well, and Pfeiffer was seeded at a density of 2×10^5 cells/well. At the same time, different concentrations of compounds were added to the wells that had seeded with cells (6 concentrations were set for each compound at 3-fold serial dilution), and the final concentration of DMSO was 0.1%. After that, the number of viable cells was determined by Vi-CELL (Beckman Coulter) for WSU-DLCL2 and Pfeiffer every 3 days, and for Karpas422 on days 4, 7, and 11, respectively. The cells counted each time were seeded into a new 12-well plate at the same density, and supplemented with fresh medium to 1 mL. Different concentrations of compounds were added at the same time. WSU-DLCL2 and Pfeiffer were cultured to the 9th day, and Karpas422 was cultured to the 14th day. Cell data were collected uniformly, and analyzed with GraphPad prisim5. Dose curves were fitted, and IC50 values of the assay compounds were obtained.

[1] = test system: cellular H3K27 methylation; experiment: Cellular H3K27 methylation assay (Western blot of H3K27me3 in HeLa cells); type: cell-based; conditions: Homo sapiens, 72 h, read-out: PD IC50
[2] = WSUDLCL2, WSU-DLCL2 cells, cultured to the 9th day, read-out: Anti-proliferation IC50
[3] = HeLa cells, 3 days, H3K27me3 level by Western blot

Row | Structure (SMILES) | IC50 (WSU-DLCL2 cells; [2]) | IC50 [1, 3] | IC50 (WSU-DLCL2 cells; WSUDLCL2, read-out: Anti-proliferation IC50) | IC50 ([1]; HeLa)
1 | Fc1ccc2c(c1CNc1ncc(C3CCCO3)c3nncn13)CCO2 (stereo not drawn) [HJM-003] | 131 nM | 54.3 nM | – | –
2 | CCOCCc1cnc(NCc2c(F)ccc3c2CCO3)n2cnnc12 [HJM-010] | 77.8 nM | 44.6 nM | – | –
3 | COCCCc1cnc(NCc2c(F)ccc3c2CCO3)n2cnnc12 [HJM-011] | 86.3 nM | 33.8 nM | – | –
4 | CC(C)Oc1cnc(NCc2c(F)ccc3c2CCO3)n2cnnc12 [HJM-015] | 115 nM | 25.4 nM | – | –
5 | Fc1ccc2c(c1CNc1ncc(OC3CCC3)c3nncn13)CCO2 [HJM-017] | 113 nM | 26.3 nM | – | –
6 | Fc1ccc2c(c1CNc1ncc(OCC3CC3)c3nncn13)CCO2 [HJM-019] | 72 nM | 29.4 nM | – | –
7 | Fc1ccc2c(c1CNc1ncc(OCC3CCOCC3)c3nncn13)CCO2 [HJM-020] | 48.5 nM | 39.8 nM | – | –
8 | CN(C)C(=O)c1cnc(NCc2c(F)ccc3c2CCO3)n2cnnc12 [HJM-025] | – | – | 26.4 nM | 43.3 nM
9 | O=C(c1cnc(NCc2c(F)ccc3c2CCO3)n2cnnc12)N1CCOCC1 [HJM-027] | 58 nM | 89.5 nM | – | –
10 | O=C(CC1CC1)Nc1cnc(NCc2c(F)ccc3c2CCO3)n2cnnc12 [HJM-031] | 80.6 nM | 39.6 nM | – | –
11 | O=C(CCC(F)(F)F)Nc1cnc(NCc2c(F)ccc3c2CCO3)n2cnnc12 [HJM-033] | 94.7 nM | 25.9 nM | – | –
12 | O=C(Nc1cnc(NCc2c(F)ccc3c2CCO3)n2cnnc12)C1CCCO1 (stereo not drawn) [HJM-037] | 115 nM | 64.7 nM | – | –
13 | O=C(Nc1cnc(NCc2c(F)ccc3c2CCO3)n2cnnc12)c1ccccc1 [HJM-042] | 82 nM | 60.5 nM | – | –
14 | CC(F)C(=O)Nc1cnc(NCc2c(F)ccc3c2CCO3)n2cnnc12 (stereo not drawn) [HJM-072] | 120 nM | 30 nM | – | –
15 | CN(C(=O)CC1CC1)c1cnc(NCc2c(F)ccc3c2CCO3)n2cnnc12 [HJM-073] | 29.4 nM | 39.3 nM | – | –
16 | CN(C)CCC(=O)Nc1cnc(NCc2c(F)ccc3c2CCO3)n2cnnc12 [HJM-082] | 124 nM | 29.9 nM | – | –
17 | COCC(=O)Nc1cnc(NCc2c(F)ccc3c2CCO3)n2cnnc12 [HJM-083] | 28 nM | 28.5 nM | – | –
18 | COCCOCC(=O)Nc1cnc(NCc2c(F)ccc3c2CCO3)n2cnnc12 [HJM-084] | 86.9 nM | 84 nM | – | –
19 | Fc1ccc2c(c1CNc1ncc(OC3COC3)c3nncn13)CCO2 [HJM-100] | 54.8 nM | 54.3 nM | – | –
20 | Fc1ccc2c(c1CNc1ncc(OCC3CCCO3)c3nncn13)CCO2 (stereo not drawn) [HJM-101] | 52.6 nM | 39.5 nM | – | –

Row | Structure (SMILES) | IC50 (WSU-DLCL2 cells; [2]) | IC50 [1, 3] | IC50 (WSU-DLCL2 cells; WSUDLCL2, read-out: Anti-proliferation IC50) | IC50 ([1]; HeLa)
21 | Fc1ccc2c(c1CNc1ncc(OCC3CCO3)c3nncn13)CCO2 (stereo not drawn) [HJM-103] | 148 nM | 94.2 nM | – | –
22 | CC(Oc1cnc(NCc2c(F)ccc3c2CCO3)n2cnnc12)C1COC1 (stereo not drawn) [HJM-106] | 39.8 nM | 57.7 nM | – | –
23 | CN1CC(Oc2cnc(NCc3c(F)ccc4c3CCO4)n3cnnc23)C1 [HJM-114] | 211 nM | 68 nM | – | –
24 | O=C(C1CC1)N1CC(Oc2cnc(NCc3c(F)ccc4c3CCO4)n3cnnc23)C1 [HJM-115] | – | 201 nM | – | –
25 | CN1CC(COc2cnc(NCc3c(F)ccc4c3CCO4)n3cnnc23)C1 [HJM-116] | – | 550 nM | – | –
26 | CC(=O)N1CC(COc2cnc(NCc3c(F)ccc4c3CCO4)n3cnnc23)C1 [HJM-117] | – | 1300 nM | – | –
27 | CNCCOc1cnc(NCc2c(F)ccc3c2CCO3)n2cnnc12 [HJM-118] | – | 792 nM | – | –
28 | CN(C)CCOc1cnc(NCc2c(F)ccc3c2CCO3)n2cnnc12 [HJM-119] | – | 264 nM | – | –
29 | OC1CCC(Oc2cnc(NCc3c(F)ccc4c3CCO4)n3cnnc23)CC1 (stereo not drawn) [HJM-121] | – | 494 nM | – | –
30 | COC1CCC(Oc2cnc(NCc3c(F)ccc4c3CCO4)n3cnnc23)CC1 (stereo not drawn) [HJM-122] | – | 54.9 nM | – | –
31 | COC1CCC(COc2cnc(NCc3c(F)ccc4c3CCO4)n3cnnc23)CC1 (stereo not drawn) [HJM-123] | – | 132 nM | – | –
32 | O[C@H]1CC[C@H](COc2cnc(NCc3c(F)ccc4c3CCO4)n3cnnc23)CC1 [HJM-125] | – | 463 nM | – | –
33 | Fc1ccc2c(c1CNc1ncc(OCCOc3ccccc3)c3nncn13)CCO2 [HJM-126] | – | 92.1 nM | – | –
34 | COc1ccc(OCCOc2cnc(NCc3c(F)ccc4c3CCO4)n3cnnc23)cc1 [HJM-127] | – | 108 nM | – | –
35 | Fc1ccc2c(c1CNc1ncc(OCCn3cccc3)c3nncn13)CCO2 [HJM-128] | – | 62 nM | – | –
36 | Fc1ccc2c(c1CNc1ncc(OCCn3cncn3)c3nncn13)CCO2 [HJM-129] | – | 389 nM | – | –
37 | Cc1ccc(COc2cnc(NCc3c(F)ccc4c3CCO4)n3cnnc23)cn1 [HJM-130] | – | 104 nM | – | –
38 | Fc1ccc2c(c1CNc1ncc(OCc3cncnc3)c3nncn13)CCO2 [HJM-131] | – | 130 nM | – | –
39 | Fc1ccc2c(c1CNc1ncc(OCc3cnccn3)c3nncn13)CCO2 [HJM-132] | – | 123 nM | – | –
40 | CC(Oc1cnc(NCc2c(F)ccc3c2CCO3)n2cnnc12)c1cccnc1 (stereo not drawn) [HJM-133] | – | 74.4 nM | – | –

Row | Structure (SMILES) | IC50 (WSU-DLCL2 cells; [2]) | IC50 [1, 3] | IC50 (WSU-DLCL2 cells; WSUDLCL2, read-out: Anti-proliferation IC50) | IC50 ([1]; HeLa)
41 | Fc1ccc2c(c1CNc1ncc(OCc3cnco3)c3nncn13)CCO2 [HJM-134] | – | 159 nM | – | –
42 | CN1CCC(Oc2cnc(NCc3c(F)ccc4c3CCO4)n3cnnc23)C1=O (stereo not drawn) [HJM-135] | – | 286 nM | – | –
43 | CN1CC(Oc2cnc(NCc3c(F)ccc4c3CCO4)n3cnnc23)CC1=O (stereo not drawn) [HJM-136] | – | 394 nM | – | –
44 | COCCOc1cnc(NCc2c(F)ccc3c2CCO3)n2cnnc12 [HJM-137] | 51.4 nM | 62 nM | – | –
45 | COCCCOc1cnc(NCc2c(F)ccc3c2CCO3)n2cnnc12 [HJM-138] | 43.2 nM | 49.8 nM | – | –
46 | Fc1ccc2c(c1CNc1ncc(OCc3ccccc3)c3nncn13)CCO2 [HJM-139] | – | – | – | 120 nM
47 | Fc1ccc2c(c1CNc1ncc(OCc3cccnc3)c3nncn13)CCO2 [HJM-140] | – | 21.4 nM | – | –
48 | Fc1ccc2c(c1CNc1ncc(OCc3ccncc3)c3nncn13)CCO2 [HJM-141] | – | 64.4 nM | – | –
49 | Fc1ccc2c(c1CNc1ncc(OCc3ccccn3)c3nncn13)CCO2 [HJM-142] | – | 39.7 nM | – | –
50 | Cc1cccc(COc2cnc(NCc3c(F)ccc4c3CCO4)n3cnnc23)n1 [HJM-143] | – | 204 nM | – | –
51 | Fc1ccc2c(c1CNc1ncc(OCCn3ccnc3)c3nncn13)CCO2 [HJM-144] | – | 71.7 nM | – | –
52 | N#CCOc1cnc(NCc2c(F)ccc3c2CCO3)n2cnnc12 [HJM-145] | 47.3 nM | 32.8 nM | – | –
53 | O=C(COc1cnc(NCc2c(F)ccc3c2CCO3)n2cnnc12)C1CC1 [HJM-146] | – | 150 nM | – | –
54 | O=C(NCCOc1cnc(NCc2c(F)ccc3c2CCO3)n2cnnc12)C1CC1 [HJM-147] | – | 95.3 nM | – | –
55 | CNC(=O)COc1cnc(NCc2c(F)ccc3c2CCO3)n2cnnc12 [HJM-148] | – | 1090 nM | – | –
56 | CN(C)C(=O)COc1cnc(NCc2c(F)ccc3c2CCO3)n2cnnc12 [HJM-149] | – | – | – | 546 nM
57 | Fc1ccc2c(c1CNc1ncc(OC(F)F)c3nncn13)CCO2 [HJM-150] | – | 38.5 nM | – | –
58 | CN(C)C(=O)Oc1cnc(NCc2c(F)ccc3c2CCO3)n2cnnc12 [HJM-151] | – | – | – | 91.1 nM
59 | COCCN(C)C(=O)c1cnc(NCc2c(F)ccc3c2CCO3)n2cnnc12 [HJM-152] | 106 nM | 73.2 nM | – | –
60 | O=C(c1cnc(NCc2c(F)ccc3c2CCO3)n2cnnc12)N1CCC1 [HJM-153] | – | 93.2 nM | – | –
